Results taken from patent US9238571B2, “Formulations for c-Met kinase inhibitors” (Merck Sharp & Dohme Limited, priority 2009, dated 2016).

Tests used:
[1] = Solubility measurements of Compound A HCl salt in 250 mL SGF with citric acid pre-dissolved; assay type: physicochemical
Method: FIG. 2 describes the solubility measurements for Compound A HCl salt in 250 mL of SGF with various amounts of citric acid anhydrous pre-dissolved.
Within this formulation the amount of citric acid anhydrous available is 160.44 mg (Target fill weight for the capsule is 382.0 mg)

[2] = Clinical studies with Compound A (exposure among patients); assay type: in vivo
Text: The formulations of the instant invention have advantages over other formulations of c-Met kinase inhibitors. […] Based upon the sharp dependence of solubility on pH, it can be postulated that the performance of these formulations can vary based on variability in gastric pH. […] Exposure can vary due to many factors, including whether the inhibitor is taken with or without food. The formulations of the instant invention give in vivo exposures to the drug that are less sensitive to changes in gastric pH than other formulations.

Cn1cc(-c2cnc3ccc4ccc(CS(=O)(=O)NCc5ccccn5)cc4c(=O)c3c2)cn1 [Compound A, 1-[3-(1-Methyl-1H-pyrazol-4-yl)-5-oxo-5H-benzo[4,5]cyclohepta[1,2-b]pyridin-7-yl]-N-(pyridin-2-ylmethyl)methanesulfonamide]
maximum solubility ([1]; 300 mg of citric acid fully dissolved in 250 mL of SGF pH 3.0, Compound A HCl salt (FIG. 2)): approximately 15 mg | % dissolved equated from maximum solubility ([1]; for a 110 mg potency capsule, 300 mg citric acid pre-dissolved in 250 mL SGF pH 3.0): 14% | variability in Compound A exposure among patients [2]: high variability | exposure in patients concomitantly taking antacids ([2]; some patients with high gastric pH (antacids)): lower exposures
